In ChEMBL document CHEMBL1201862, “PubChem BioAssay data set” (2004):
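Each compound was tested at five concentrations against cells in 96-well plates for 48 hours. GI50: concentration for 50% inhibition of growth.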 Activity calls are given as the source filed them. Rule as the data show it: active = GI50 up to about 1.1 µM and inactive = higher.

Columns and labels:
Assay in all cases: NCI anticancer screen, dose series, 48 h
HCT-116 = system: HCT-116
SF-295 = system: SF-295
TK-10 = system: TK-10
T47D = system: T47D
PC-3 = system: PC-3
NCI-H522 = system: NCI-H522
UO-31 = system: UO-31
MDA-MB-231 = system: MDA-MB-231
HCT-15 = system: HCT-15
UACC-257 = system: UACC-257
SN12C = system: SN12C
NCI-H23 = system: NCI-H23
SK-OV-3 = system: SK-OV-3
SF-268 = system: SF-268
SR = system: SR
HCC 2998 = system: HCC 2998
SNB-75 = system: SNB-75
NCI-H460 = system: NCI-H460
OVCAR-8 = system: OVCAR-8
CCRF-CEM = system: CCRF-CEM
HT-29 = system: HT-29
A498 = system: A498
LOX IMVI = system: LOX IMVI
MDA-N = system: MDA-N
MDA-MB-435 = system: MDA-MB-435
HL-60 = system: HL-60
SK-MEL-2 = system: SK-MEL-2
ACHN = system: ACHN
SK-MEL-28 = system: SK-MEL-28
BT-549 = system: BT-549
M14 = system: M14
OVCAR-5 = system: OVCAR-5
COLO 205 = system: COLO 205
K562 = system: K562
HOP-92 = system: HOP-92
SNB-19 = system: SNB-19
UACC-62 = system: UACC-62
SW-620 = system: SW-620
OVCAR-3 = system: OVCAR-3
CAKI-1 = system: CAKI-1
RPMI-8226 = system: RPMI-8226
U-251 = system: U-251
NCI/ADR-RES = system: NCI/ADR-RES
IGROV-1 = system: IGROV-1
MCF7 = system: MCF7
SK-MEL-5 = system: SK-MEL-5
DU-145 = system: DU-145
OVCAR-4 = system: OVCAR-4
786-0 = system: 786-0
KM12 = system: KM12
EKVX = system: EKVX
NCI-H226 = system: NCI-H226
Hs-578T = system: Hs-578T
Malme-3M = system: Malme-3M
RXF 393 = system: RXF 393
A549 = system: A549
HOP-62 = system: HOP-62

Measured: GI50

CN1CCN(c2nc3c(c(=O)n(C)c(=O)n3C)n2C)CC1
inactive: HCT-116 > 100 µM | SF-295 > 100 µM | TK-10 > 100 µM | T47D > 100 µM | PC-3 > 100 µM | NCI-H522 > 100 µM | UO-31 > 100 µM | MDA-MB-231 > 100 µM | UACC-257 > 100 µM | SN12C > 100 µM | NCI-H23 > 100 µM | SK-OV-3 > 100 µM | SF-268 > 100 µM | SR > 100 µM | HCC 2998 > 100 µM | SNB-75 > 100 µM | NCI-H460 > 100 µM | OVCAR-8 > 100 µM | CCRF-CEM > 100 µM | HT-29 > 100 µM | A498 > 100 µM | LOX IMVI > 100 µM | MDA-N > 100 µM | MDA-MB-435 > 100 µM | HL-60 > 100 µM | SK-MEL-2 > 100 µM | ACHN > 100 µM | SK-MEL-28 > 100 µM | BT-549 > 100 µM | M14 > 100 µM | OVCAR-5 > 100 µM | COLO 205 > 100 µM | K562 > 100 µM | HOP-92 > 100 µM | SNB-19 > 100 µM | UACC-62 > 100 µM | SW-620 > 100 µM | OVCAR-3 > 100 µM | CAKI-1 > 100 µM | RPMI-8226 > 100 µM | U-251 > 100 µM | NCI/ADR-RES > 100 µM | IGROV-1 > 100 µM | MCF7 > 100 µM | SK-MEL-5 > 100 µM | DU-145 > 100 µM | OVCAR-4 > 100 µM | 786-0 > 100 µM | KM12 > 100 µM | EKVX > 100 µM | NCI-H226 > 100 µM | Hs-578T > 100 µM | Malme-3M > 100 µM | RXF 393 > 100 µM | A549 > 100 µM | HOP-62 > 100 µM
> 100 µM: HCT-15
